Some test systems named below: OVCAR-5 ovarian; RPMI-8226 leukemia; NCI-H23 lung; KM12 colon; OVCAR-8 ovarian; SF-539 CNS; DU-145 prostate; SW-620 colon.
What all share (experiment): DTP human tumour cell line panel, 48 h

SMILES strings stand for the structures.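 Dose response: 5 concentrations. Exposure: 48 h. Format: 96-well plates. Endpoint: linear interpolation; highest concentration if not reached. The concentration for 50% growth inhibition is given as GI50. TGI denotes the concentration required for complete inhibition of growth.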 Some results are limits rather than exact numbers.

For orientation: GI50 means the concentration at which growth is held to half of that of the control. Usually TGI stands for the concentration giving total growth inhibition. Higher therefore signals less potent growth arrest.

With `C=C(C)[C@@H]1CC[C@]2(C(N)=O)CC[C@]3(C)[C@H](CC[C@@H]4[C@@]5(C)CC[C@H](O)C(C)(C)[C@@H]5CC[C@]43C)[C@@H]12`, the GI50 with OVCAR-5 ovarian was 3.78 µM; in the experiment with RPMI-8226 leukemia, 3.53 µM; in the experiment on NCI-H23 lung, 2.26 µM; in the experiment on KM12 colon it was 3.2 µM; in the experiment with OVCAR-8 ovarian, 3.12 µM; with SF-539 CNS it was 1.78 µM. The GI50 was 3.21 µM with DU-145 prostate and 3.88 µM in the experiment on SW-620 colon. Moreover, the TGI was 16.5 µM with OVCAR-5 ovarian; 24.9 µM in the experiment on RPMI-8226 leukemia; 5.21 µM in the experiment with NCI-H23 lung; 11.9 µM with KM12 colon; more than 100 µM with OVCAR-8 ovarian; 3.4 µM in the experiment with SF-539 CNS. In addition, the TGI in the experiment with DU-145 prostate was 10.1 µM; in the experiment on SW-620 colon it was 26.1 µM.
`COC(=O)[C@H]1C(=O)[C@@]2(C)[C@H]([C@H](OC(=O)c3ccccc3)[C@]3(O)C[C@H](OC(=O)[C@H](O)[C@@H](NC(=O)c4ccc(F)cc4)c4ccccc4)C(C)=C1C3(C)C)[C@]1(OC(C)=O)CO[C@@H]1C[C@@H]2O`: the GI50 in the experiment on OVCAR-5 ovarian was 0.0149 µM; in the experiment with RPMI-8226 leukemia it was 0.00484 µM; with NCI-H23 lung, 0.0202 µM; with KM12 colon, 0.00629 µM; in the experiment on OVCAR-8 ovarian, 0.0171 µM; in the experiment with SF-539 CNS, 0.00749 µM. Moreover, the concentration for 50% growth inhibition (GI50) in the experiment on DU-145 prostate is 0.00708 µM; in the experiment with SW-620 colon it was 0.00821 µM. For the same molecule, the total growth inhibition concentration (TGI) was more than 25 µM in the experiment with OVCAR-5 ovarian; 0.271 µM in the experiment on RPMI-8226 leukemia; more than 25 µM with NCI-H23 lung; more than 25 µM with OVCAR-8 ovarian; 0.0753 µM with SF-539 CNS; 0.023 µM with DU-145 prostate. This molecule yielded a TGI in the experiment with SW-620 colon of more than 25 µM.
Turning to `CNC(=O)c1c(NC(=O)c2ccc(C(F)(F)F)cc2)sc2c1CCC(=O)C2`, the GI50 in the experiment on OVCAR-5 ovarian was 0.607 µM; in the experiment with RPMI-8226 leukemia, 0.272 µM; in the experiment with NCI-H23 lung, 0.418 µM; in the experiment with KM12 colon, 0.668 µM; with OVCAR-8 ovarian, 0.466 µM; with SF-539 CNS it was 0.386 µM. Also, the figures for the GI50 with DU-145 prostate and in the experiment with SW-620 colon were 4.18 µM and 0.235 µM, respectively. In addition, the TGI with OVCAR-5 ovarian is 2.76 µM; in the experiment on RPMI-8226 leukemia it was 0.884 µM; in the experiment on NCI-H23 lung it was 5.9 µM; in the experiment with KM12 colon, 2.46 µM; in the experiment with OVCAR-8 ovarian it was more than 37.1 µM; in the experiment with SF-539 CNS, 1.72 µM. Moreover, the TGI with DU-145 prostate is more than 100 µM; with SW-620 colon, 1.64 µM.
Take `CO/[N+]([O-])=C\C(=O)N/C=C/C(=O)O`: the TGI in the experiment on OVCAR-5 ovarian, with RPMI-8226 leukemia, in the experiment on NCI-H23 lung, in the experiment with KM12 colon, in the experiment on OVCAR-8 ovarian and with SF-539 CNS was more than 100 µM each time. For the same molecule, the TGI in the experiment with DU-145 prostate and with SW-620 colon was more than 100 µM in each case.
Turning to `COc1cccc(Cn2c(-c3nonc3N)nc3ccccc32)c1`, the GI50 in the experiment on OVCAR-5 ovarian was 1.17 µM; in the experiment with RPMI-8226 leukemia, 0.377 µM; with NCI-H23 lung it was 0.717 µM; in the experiment with KM12 colon, 0.515 µM; in the experiment on OVCAR-8 ovarian, 0.61 µM; in the experiment with SF-539 CNS, 0.237 µM. For the same molecule, the values for the GI50 in the experiment with DU-145 prostate and with SW-620 colon were 0.591 µM and 0.372 µM, respectively. For the same molecule, the TGI in the experiment on OVCAR-5 ovarian is more than 68 µM; in the experiment on RPMI-8226 leukemia, more than 100 µM; in the experiment with NCI-H23 lung, more than 100 µM; in the experiment with KM12 colon it was more than 100 µM; in the experiment on OVCAR-8 ovarian, more than 100 µM; in the experiment on SF-539 CNS, 0.696 µM. For the same molecule, the TGI with DU-145 prostate and with SW-620 colon was more than 100 µM in each case.
Consider `COc1ccccc1/C=C/C(=O)c1c(O)cc2occc2c1OC`, for which the GI50 in the experiment with OVCAR-5 ovarian is more than 100 µM; in the experiment on RPMI-8226 leukemia, 23.5 µM; in the experiment with NCI-H23 lung, 22.4 µM; with KM12 colon it was more than 100 µM; with OVCAR-8 ovarian it was 53.8 µM; in the experiment with SF-539 CNS, 24.3 µM. Also, the figures for the GI50 with DU-145 prostate and in the experiment with SW-620 colon were 23.5 µM and more than 100 µM, respectively. Also, the total growth inhibition concentration (TGI) in the experiment with OVCAR-5 ovarian, in the experiment with RPMI-8226 leukemia, in the experiment on NCI-H23 lung, in the experiment with KM12 colon, with OVCAR-8 ovarian and in the experiment with SF-539 CNS was more than 100 µM each time. Further, the TGI in the experiment with DU-145 prostate and in the experiment on SW-620 colon was more than 100 µM in each case.
`COc1cc2c3c(c4ccc(OC)c(OC)c4c2cc1OC)CN1CCC[C@@H]1C3`: the TGI in the experiment on OVCAR-5 ovarian was found to be 17.1 µM; with NCI-H23 lung, 0.637 µM; in the experiment with KM12 colon, 0.965 µM; in the experiment with OVCAR-8 ovarian, 0.264 µM; in the experiment on SF-539 CNS, 0.425 µM; with DU-145 prostate it was 2.9 µM. In the experiment with SW-620 colon, this molecule displayed a concentration for total growth inhibition (TGI) of more than 47.7 µM.
On to `CC(=O)[O-].CC(=O)[O-].O=C(N/N=C/c1cc(Cl)cc(Cl)c1O)c1ccncc1.[Ni+2]`, for which the TGI in the experiment with OVCAR-5 ovarian, in the experiment on RPMI-8226 leukemia, with NCI-H23 lung, with KM12 colon, in the experiment with OVCAR-8 ovarian and in the experiment with SF-539 CNS was more than 100 µM throughout. In the experiment with SW-620 colon, the total growth inhibition concentration (TGI) came to 83.5 µM.
`CN(C)CCCNC(=O)c1ccc2oc3cc4ccccc4c(=O)n3c2c1`: the GI50 is more than 50 µM in the experiment with RPMI-8226 leukemia; 17.9 µM with NCI-H23 lung; 18.5 µM with KM12 colon; 40.5 µM with OVCAR-8 ovarian; 13.6 µM with SF-539 CNS; 36.7 µM in the experiment on DU-145 prostate. Also, in the experiment with SW-620 colon, the GI50 was 24.3 µM. Moreover, the total growth inhibition concentration (TGI) with RPMI-8226 leukemia is more than 50 µM; in the experiment with NCI-H23 lung, more than 50 µM; in the experiment with KM12 colon, more than 50 µM; in the experiment with OVCAR-8 ovarian, more than 50 µM; with SF-539 CNS, 30.5 µM; in the experiment on DU-145 prostate, more than 50 µM. Also, the total growth inhibition concentration (TGI) in the experiment on SW-620 colon was more than 50 µM.
Take `O=C(NCCc1ccccc1)C(c1ccccc1)(c1ccccc1)c1ccccc1`: the GI50 in the experiment on OVCAR-5 ovarian is 3.91 µM; in the experiment with RPMI-8226 leukemia, 15.9 µM; with KM12 colon it was 3.19 µM; with OVCAR-8 ovarian it was 1.62 µM; in the experiment with DU-145 prostate, 3.38 µM; in the experiment on SW-620 colon it was 4.35 µM. In addition, the TGI with OVCAR-5 ovarian is 50.6 µM; in the experiment on RPMI-8226 leukemia it was more than 100 µM; in the experiment with KM12 colon it was 11.3 µM; with OVCAR-8 ovarian it was 4.44 µM; with DU-145 prostate it was 44.2 µM; with SW-620 colon, more than 100 µM.
Take `Cc1nc2ccccn2c1NC(=O)NNC(=S)Nc1ccc(Br)cc1`: the GI50 with OVCAR-5 ovarian is 32.2 µM; with RPMI-8226 leukemia, 41.6 µM; in the experiment on KM12 colon, 35.4 µM; with OVCAR-8 ovarian, 63.8 µM; with SF-539 CNS, 22.4 µM; in the experiment with DU-145 prostate, 45.9 µM. Moreover, the GI50 with SW-620 colon was 39.8 µM. The TGI with OVCAR-5 ovarian is more than 100 µM; with RPMI-8226 leukemia, more than 100 µM; with KM12 colon, more than 100 µM; in the experiment with OVCAR-8 ovarian, more than 100 µM; with SF-539 CNS, 55.2 µM; with DU-145 prostate it was more than 100 µM. In the experiment on SW-620 colon, this molecule yielded a TGI of more than 100 µM.
With `O=C1/C=C/[C@@H](O)[C@@H]2C[C@@H](O)C[C@H]2/C=C/CCC[C@H](CCc2ccc(C(F)(F)F)cc2)O1`, the GI50 is 0.505 µM in the experiment with OVCAR-5 ovarian; 0.282 µM with RPMI-8226 leukemia; 0.236 µM in the experiment on NCI-H23 lung; 0.219 µM in the experiment with OVCAR-8 ovarian; 0.522 µM in the experiment with SF-539 CNS; 0.479 µM with DU-145 prostate. The GI50 with SW-620 colon was 0.297 µM. Moreover, the concentration for total growth inhibition (TGI) is more than 100 µM in the experiment on OVCAR-5 ovarian; 0.806 µM in the experiment with RPMI-8226 leukemia; 1.57 µM in the experiment on NCI-H23 lung; more than 100 µM in the experiment on OVCAR-8 ovarian; more than 100 µM in the experiment on SF-539 CNS; more than 100 µM with DU-145 prostate. In the experiment on SW-620 colon, this molecule registered a total growth inhibition concentration (TGI) of 1.27 µM.
Turning to `CCC(=O)C1(c2ccccc2)CCN(C)CC1`, the TGI in the experiment on OVCAR-5 ovarian, with RPMI-8226 leukemia, in the experiment on NCI-H23 lung, in the experiment with KM12 colon, in the experiment on OVCAR-8 ovarian and in the experiment with DU-145 prostate was more than 100 µM each time. Besides, in the experiment on SW-620 colon, the concentration for total growth inhibition (TGI) is more than 100 µM.
In the case of `COc1cc2c(c(OC)c1O)-c1ccc(OC)c(=O)cc1[C@@H](NC(=O)C(F)(F)F)CC2`, the TGI is more than 100 µM in the experiment with OVCAR-5 ovarian; 0.0699 µM in the experiment with RPMI-8226 leukemia; more than 100 µM in the experiment with KM12 colon; more than 100 µM in the experiment with OVCAR-8 ovarian; 0.087 µM with SF-539 CNS; more than 100 µM in the experiment on DU-145 prostate. The molecule further registered a total growth inhibition concentration (TGI) with SW-620 colon of more than 100 µM.
In the case of `COc1c2ccoc2cc2oc(=O)ccc12`, the total growth inhibition concentration (TGI) in the experiment with OVCAR-5 ovarian, in the experiment with RPMI-8226 leukemia, in the experiment on NCI-H23 lung, in the experiment with OVCAR-8 ovarian, in the experiment on SF-539 CNS and in the experiment on DU-145 prostate was more than 100 µM in each case. In the experiment on SW-620 colon, this molecule came in with a TGI of more than 100 µM.
In the case of `CCOC(=O)C(Cc1c[nH]c2ccc([N+](=O)[O-])cc12)(NC(C)=O)C(=O)OCC`, the GI50 with OVCAR-5 ovarian is more than 1000 µM; in the experiment with NCI-H23 lung it was 85 µM; with KM12 colon, more than 1000 µM; with OVCAR-8 ovarian, 96.7 µM; with SF-539 CNS, 134 µM; in the experiment on DU-145 prostate, more than 714 µM. Moreover, in the experiment on SW-620 colon, the GI50 was more than 1000 µM. For the same molecule, the total growth inhibition concentration (TGI) in the experiment on OVCAR-5 ovarian was more than 1000 µM; in the experiment with NCI-H23 lung it was more than 1000 µM; with KM12 colon it was more than 1000 µM; in the experiment with OVCAR-8 ovarian it was more than 870 µM; with SF-539 CNS, more than 473 µM; in the experiment with DU-145 prostate, more than 1000 µM. The TGI in the experiment with SW-620 colon was more than 1000 µM.
